Series [1] can be described thus: Urinary recovery of carbapenem antibiotics combined with DHP-I inhibitor. It is filed as in vivo, ICR mice. The settings on record: for dose excreted: mouse, urine, iv, 1 mg/kg, antibiotic 1 mg/kg i.v., ICR mice. On the procedure: The effect of the test compound No.1 on urinary recovery of carbapenem antibiotics simultaneously administrated was determined. Urinary recovery percent was calculated by measuring a quantity of antibiotics excreted in urine using bioassay, when antibiotics and DHP-I inhibitor were combined and intravenously injected to ICR mice (female, 4 weeks old, 4 animals per group).

Another series deals with Staphylococcus aureus 47. As to the kind of experiment: Protective effect of carbapenem antibiotic combined with DHP-I inhibitor on mice infection. It is filed as in vivo. The settings on record: Test compound No. 4 alone 10 mg/kg s.c., 1 hour after challenge; ICR mice. As for the experimental part: The combined effect of DHP-I inhibitor of this invention with the carbapenem antibiotic, on mice infection was determined. ICR mice (female, 4 weeks old, 5 animals per group) were intraperitoneally injected with 4×10^8 Staphylococcus aureus 47 suspended in 5% mucin. Combined therapies were administrated subcutaneously 1 hour after challenge.

Another series can be described thus: Solubility. It is filed as physicochemical. The settings on record: disodium salt.
In series [2] the target is T1, DHP-I (renal dipeptidase) (Sus scrofa, UniProt P22412).
T1 construct: Fresh kidney cortex was cut into pieces and homogenized in a Waring blender; from tissue; host or cells: kidney cortex (pig), n-butanol extraction, ammonium sulfate fraction 50-75%
T1 sequence (P22412 17-409): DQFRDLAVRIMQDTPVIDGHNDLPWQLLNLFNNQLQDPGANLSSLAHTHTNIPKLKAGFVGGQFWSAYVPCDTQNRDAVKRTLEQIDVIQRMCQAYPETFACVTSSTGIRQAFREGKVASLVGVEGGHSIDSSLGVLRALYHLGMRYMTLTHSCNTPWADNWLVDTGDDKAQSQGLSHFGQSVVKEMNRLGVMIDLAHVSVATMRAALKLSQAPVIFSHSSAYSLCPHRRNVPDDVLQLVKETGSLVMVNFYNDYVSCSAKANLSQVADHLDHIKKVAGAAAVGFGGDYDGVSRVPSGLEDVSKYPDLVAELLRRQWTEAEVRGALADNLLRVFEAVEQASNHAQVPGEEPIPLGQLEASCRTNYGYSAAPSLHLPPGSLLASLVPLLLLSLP
As to the kind of experiment: Inhibition of DHP-I activity, porcine DHP-I. The settings on record: glycyldehydrophenylalanine substrate. It is filed as biochemical. As for the experimental part:
(§1) DHP-I (renal dipeptidase) were partially purified from several species of animals by B. J. Cambell (Methods in Enzymology, (1970) Vol. 19,722). Fresh kidney cortex was cut into pieces and homogenized in a Waring blender with an equal volume of 1/15M phosphate buffer (pH 8.0). The homogenate was filtrated on gauze to remove cellular debris. n-Butanol chilled to 0° C., was added to a concentration of 20% by volume with rapid stirring. The suspension was stirred with a magnetic stirrer for overnight at 4° C. to dissolve DHP-I. The resultant emulsion was then dialyzed against several changes of distilled water. To the dialyzate was added solid ammonium sulfate to 50% saturation at 0° C. The precipitate formed was collected by centrifugation at 4500 g for 1 hour and discarded. Solid ammonium sulfate was then added to the supernatant to 75% saturation, the suspension was centrifuged at 10,000 g for 1 hour. The sediment was dissolved in a small volume of distilled water and dialyzed against distilled water. […]
(§2) Activity of DHP-I was measured by mean of using the unsaturated dipeptide, glycyldehydrophenylalanine as substrate. […] Inhibitory effect of the test compound on DHP-I activity was measured. Inhibition percent, I(%), was calculated as followed, I(%)=(E-T)/Ex100, where E was DHP-I activity without test compound (Control), T was DHP-I activity with test compound.

For series [3], the target named is T2, DHP-I (renal dipeptidase) (Oryctolagus cuniculus, UniProt P31429).
T2 construct: Fresh kidney cortex was cut into pieces and homogenized in a Waring blender; from tissue; host or cells: kidney cortex (rabbit), n-butanol extraction, ammonium sulfate fraction 50-75%
T2 sequence (P31429 17-410): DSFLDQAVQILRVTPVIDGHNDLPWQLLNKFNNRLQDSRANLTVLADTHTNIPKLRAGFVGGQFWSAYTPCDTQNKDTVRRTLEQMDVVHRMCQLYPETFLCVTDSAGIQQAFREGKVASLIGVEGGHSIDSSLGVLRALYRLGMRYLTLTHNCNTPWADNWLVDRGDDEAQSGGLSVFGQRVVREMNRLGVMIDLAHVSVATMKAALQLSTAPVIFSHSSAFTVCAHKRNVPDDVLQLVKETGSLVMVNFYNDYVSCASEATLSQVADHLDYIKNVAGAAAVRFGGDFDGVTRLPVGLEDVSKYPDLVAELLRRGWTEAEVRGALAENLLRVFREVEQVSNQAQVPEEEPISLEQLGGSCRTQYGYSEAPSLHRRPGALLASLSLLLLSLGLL
Kind of series: Inhibition of DHP-I activity, rabbit DHP-I. The settings on record: glycyldehydrophenylalanine substrate. It is filed as biochemical. As for the experimental part:
as §1, §2

Series [4] deals with carboxypeptidaseA (CPaseA). As to the kind of experiment: Effect on other metalloenzymes: carboxypeptidase A. It is filed as biochemical. The settings on record: at 50,000 ng/ml; bovine pancreas enzyme. On the procedure: (§3) DHP-I is a metalloenzyme with the zinc atom. To clarify the specific inhibitors activity of the test compound on DHP-I, the effect of the test compound on other metalloenzymes containing zinc, carboxypeptidaseA (CPaseA), leucineaminopeptidase (LAP), was determined.
Activity of CPaseA from bovine pancreas (Type II-DEF, made by Sigma Chemical Co.) was measured by mean of using carbobenzoxyglycyl-L-phenylalanine (made by Peptide Institute, Inc., Osaka, Japan) as substrate. Enzymatic hydrolysis was followed by observing the fall in optical density at 224 nm.

For series [5], the system named is leucineaminopeptidase (LAP). Kind of series: Effect on other metalloenzymes: leucineaminopeptidase. It is filed as biochemical. The settings on record: at 50,000 ng/ml; porcine kidney microsomes enzyme. On the procedure: as §3
Activity of LAP from porcine kidney microsomes (Type IV-S, made by Sigma Chemical Co.) was measured by . mean of using L-leucine-p-nitroanilide (made by Peptide Institute, Inc.) as substrate. Enzymatic hydrolysis was followed by observing the increase in optical density at 405 nm.

The subject of another series is Escherichia coli. Kind of series: Antimicrobial activity, paper disk diffusion method. The format is cell-based. The settings on record: at 1 mg/ml. As for the experimental part:
(§4) Antimicrobial activity of the test compounds No.1 and No.2. was measured by paper disk diffusion method in a conventional manner.

The next series has as its system Staphylococcus aureus. The series is described as above. It is filed as cell-based. The settings on record: at 1 mg/ml. As for the experimental part:
as §4

For series [6] the following is noted: literature; cited from earlier work.
A further series relates to ICR mice. Kind of series: Acute toxicity, single intravenous injection. The format is in vivo. The settings on record: 1 g/kg single intravenous, female, 4 weeks old. On the procedure: The acute toxicity of the test compound No.1 was determined to ICR mice (female, 4 weeks old) by a single intravenous injection.
Where [7] appears, read: with Test compound No. 1, 0.5 mg/kg.
The mark [8] stands for this setting: with Test compound No. 1, 1 mg/kg.
[9] abbreviates: with Test compound No. 1, 2 mg/kg.

Turning to `C[C@@H](O)[C@H]1C(=O)N2C(C(=O)O)=C(S[C@@H]3CN[C@H](COC(N)=O)C3)CC12` (some centres unmarked) [Test compound No. 4], the dose excreted in series [1] (inhibitor: None) stood at 29.3 ± 2.8%; in series [1] (setting [7]), 51.4 ± 3.9%; in series [1] (setting [8]) it was 57.8 ± 1.3%; in series [1] (setting [9]) it was 71.9 ± 9.5%. In addition, the “Survived/Treated (Test mice)” value with Staphylococcus aureus 47 was 0/5.
In the case of `C[C@@H](O)[C@H]1C(=O)N2C(C(=O)O)=C(SCCNC=N)CC12` (some centres unmarked) [Test compound No. 3], the dose excreted in [1] (inhibitor: None) came to 44.1 ± 0.6%; in [1] (setting [7]), 66.1 ± 3%; in series [1] (setting [8]) it was 63.8 ± 7.3%; in series [1] (setting [9]) it was 65.4 ± 9.5%.
For `O=C(O)CCC(O)(C(=O)O)C(=O)NO` (centres unmarked) [WS-1358B], in “Solubility”, the Solubility in acetone result is on record as “Insoluble”, the Solubility in chloroform result was “Insoluble”, the Solubility in ethanol result was “Sparingly Soluble” and the “Solubility in ethyl acetate” value is given as “Insoluble”. Moreover, in “Solubility”, the Solubility in hexane entry is on record as “Insoluble”, the Solubility in methanol entry is listed as “Sparingly Soluble” and the Solubility in water entry is reported as “Soluble”.
Turning to `O=C(O)CCC(O)(C(=O)O)C(=O)NO` (centres unmarked) [Test compound No. 2], the half-maximal inhibitory concentration (IC50) in series [2] was 531 nM; in series [3] it was 2410 nM. The “Inhibitory effect on CPaseA” value in series [4] is “no inhibitory effect”. Further, the “Inhibitory effect on LAP” value in series [5] is listed as “no inhibitory effect”. For the same molecule, the Antimicrobial activity entry in the series on Escherichia coli and in the series on Staphylococcus aureus was “no antimicrobial activity” throughout.
Regarding `CC1(C)C[C@@H]1C(=O)N/C(=C\CCCCSC[C@H](N)C(=O)O)C(=O)O` [cilastatin], the “Urinary recoveries of the carbapenem antibiotics (e.g. imipenem)” value in [6] was “improving urinary recoveries”.
As to `CC(CC(=O)O)C(O)(C(=O)O)C(=O)NO` (centres unmarked) [Test compound No. 1], the results for the IC50 in series [2] and in [3] were 4.97 nM and 49.7 nM, respectively. In [4], the “Inhibitory effect on CPaseA” value is recorded as “no inhibitory effect”. Further, in series [5], the “Inhibitory effect on LAP” value was “no inhibitory effect”. Further, the Antimicrobial activity result in the series with Escherichia coli and in the series with Staphylococcus aureus was “no antimicrobial activity” each time. For the same molecule, the “Acute toxicity, toxic symptom” value with ICR mice was “No toxic symptom was observed”. In [1] (effect of inhibitor on test compound No. 3 and 4 (1 mg/kg), in words), the “Effect on urinary recovery of the carbapenem antibiotics” value is given as “significantly increased urinary recovery”.
Turning to `CC(CC(=O)O)C(O)(C(=O)O)C(=O)NO` (centres unmarked) [WS-1358A, 2-hydroxy-2-(hydroxycarbamoyl)-3-methylglutaric acid], in “Solubility”, the Solubility in acetone result is given as “Insoluble”, the Solubility in chloroform result was “Insoluble”, the Solubility in ethanol entry is given as “Sparingly Soluble” and the “Solubility in ethyl acetate” value was “Insoluble”. Moreover, in the series “Solubility”, the Solubility in hexane result is on record as “Insoluble”, the Solubility in methanol result is reported as “Sparingly Soluble” and the Solubility in water result is on record as “Soluble”.

For orientation: IC50 means the midpoint of a concentration-inhibition curve. Lower therefore signals higher potency.

The values above are taken from US5061730A, “Carboxylic acid derivatives” (Fujisawa Pharmaceutical Co., Ltd., priority 1987, dated 1991).
